{"source": "patent US9034846B2", "about": "“Use of cyclodextrin for treatment and prevention of bronchial inflammatory diseases” (UNIVERSITE DE LIEGE, priority 2004, dated 2015)", "assay_type_in_all_cases": "in vivo, mouse", "key": {"OVA exposed mice": {"system": "OVA exposed mice", "assay": "Bronchial responsiveness to methacholine (Penh, barometric plethysmograph)", "description": "In order to study modulation of airway inflammation, males BALB/c mice of 6 to 8 weeks old were sensitized by intraperitoneal injection of 10 μg ovalbumin (OVA) (Sigma Aldrich, Schnelldorf, Germany) emulsified in aluminum hydroxyde (AlumInject; Perbio, Erembodegem, Belgium) on days 1 and 8. Mice were subsequently exposed to allergens by daily inhalation of an aerosol of OVA 1%, for 30 minutes, generated by ultrasonic nebulizer (Devilbiss 2000), from day 21 to 27. […] Mice were sacrificed performed on day 28 as previously reported by Cataldo and al in Am. J. Pathol 2002; 161(2):491-498.\nTwenty-four hours after the last allergen exposure, the bronchial hyper responsiveness was determined by measuring the Penh (Enhanced Pause) using a barometric plethysmograph (Emka technologies, Paris) as proposed by Hamelmann, E., et al., Am. J. Respir. Crit. Care Med. 156 (1997) 766-775). The Penh was measured at baseline and […] after the inhalation of increasing doses (25, 50, 75 and 100 mM) of methacholine (Mch)."}, "[1]": {"system": "LPS-induced peribronchial inflammation", "assay": "Peribronchial inflammation score, LPS-induced inflammation model", "settings": "aerosolized 15 mM, vs placebo, FIG. 14", "description": "(§1) In lipopolysaccharide (LPS)-induced inflammation model, mice were exposed to 3 μg LPS diluted in 100 μl of PBS or PBS (phosphate buffer saline) only administered by direct tracheal instillations at day 1 and 5 of the protocol. Mice were daily exposed either to aerosolized hydroxypropyl-beta-cyclodextrin (15 mM) or PBS for 30 min from day 0 to 5 (6 hours after LPS or sham exposure at days 1 and 5). Mice were sacrificed at day 6.\n(§2) After sacrifice, thorax was opened and the right lungs were excised and snap frozen in liquid nitrogen for protein extraction. The left lung was insufflated at constant pressure with 4% paraformaldehyde and embedded in paraffin for further histological analysis. A peribronchial inflammation score was applied on each hematoxylin-eosin stained slide as previously reported (Cataldo et al Am J Pathol 2002). A value from 0 to 2 was adjudged to each bronchus. Score of 0 corresponded to bronchi without inflammation; score 1 to occasional mononuclear cells observed around bronchi, and score 2 to 1 to 5 layer(s) of inflammatory cells around bronchi. Six bronchi per mice were counted and statistical analysis was performed by using GraphPad Program. […] ELISA for CXCL-1 on lung protein extracts were assessed using antibodies from R&D Systems and the R&D Duoset® Elisa Development kit (R&D Systems, Minneapolis, Minn., USA)."}, "CXCL-1": {"system": "CXCL-1", "assay": "CXCL-1 ELISA in lung protein extracts, LPS-induced inflammation model", "settings": "aerosolized 15 mM, vs placebo, FIG. 13", "description": "as §1, §2"}}}
{"substance": "hydroxypropyl-βcyclodextrin [HP-β-CD]", "values": [{"measurement": "area under the methacholine dose-response curve (A.U.C)", "setting": "OVA exposed mice; 50 mM", "result": "significant decrease"}, {"measurement": "methacholine-induced Penh increase", "setting": "OVA exposed mice; 50 mM inhalation, FIG. 4", "result": "reduced"}, {"measurement": "Peribronchial inflammation", "setting": "[1]", "result": "significantly lower"}, {"measurement": "Levels of CXCL-1 in lung protein extracts", "setting": "CXCL-1", "result": "significantly decreased"}]}
